Assay results reported in patent US9914722B2, “Compounds for treating spinal muscular atrophy” (PTC Therapeutics Inc., priority 2012, dated 2018).

What was measured:
Smn protein = Smn protein assay (Smn HTRF) in cultured cells; format: cell-based, human; conditions: Homo sapiens, Fibroblast, GM03813 SMA Type 1 patient fibroblasts, 48 hours, HTRF; for maximal fold induction: 7-point concentration data, relative to vehicle, read-out: maximum fold (Fold) increase of Smn protein; for EC (1.5-fold): concentration producing 1.5 times Smn protein vs DMSO vehicle, read-out: EC1.5x for Smn protein expression
Protocol: Smn Protein Assay in Cultured Cells
The Smn HTRF (homogeneous time resolved fluorescence) assay is used to quantify the level of Smn protein in SMA patient fibroblast cells treated with test compounds.
Protocol. Cells are thawed and cultured in DMEM-10% FBS for 72 hours. Cells are trypsinized, counted and re-suspended to a concentration of 25,000 cells/mL in DMEM-10% FBS. The cell suspension is plated at 5,000 cells per well in a 96 well microtiter plate and incubated for 3 to 5 hours. […] Test compounds are serially diluted 3.16-fold in 100% DMSO to generate a 7-point concentration curve. 1 μL of test compound solution is transferred to cell-containing wells and cells are incubated for 48 hours in a cell culture incubator (37° C., 5% CO2, 100% relateive humidity). Triplicate samples are set up for each test compound concentration. After 48 hours, the supernatant is removed from the wells and 25 μL of the RIPA lysis buffer, containing protease inhibitors, is added to the wells and incubated with shaking at room temperature for 1 hour. 25 μL of the diluent is added and then 35 μL of the resulting lysate is transferred to a 384-well plate, where each well contains 5 μL of the antibody solution (1:100 dilution of anti-SMN d2 and anti-SMN kryptate in SMN reconstitution buffer). The plate is centrifuged for 1 minute to bring the solution to the bottom of the wells, then incubated overnight at room temperature. Fluorescence for each well of the plate at 665 nm and 620 nm is measured on an EnVision multilabel plate reader (Perkin-Elmer).
The normalized fluorescence signal is calculated for each sample, Blank and vehicle control well by dividing the signal at 665 nm by the signal at 620 nm. Normalizing the signal accounts for possible fluorescence quenching due to the matrix effect of the lysate. The AF value (a measurement of Smn protein abundance as a percent value) for each sample well is calculated by subtracting the normalized average fluorescence for the Blank control wells from the normalized fluorescence for each sample well, then dividing this difference by the normalized average fluorescence for the Blank control wells and multiplying the resulting value by 100. The ΔF value for each sample well represents the Smn protein abundance from test compound-treated samples. The ΔF value for each sample well is divided by the ΔF value for the vehicle control wells to calculate the fold increase in Smn protein abundance relative to the vehicle control.
For compounds of Formula (I) or a form thereof disclosed herein, Table 9 provides the EC1.5x for Smn protein expression that was obtained from the 7-point concentration data generated for each test compound according to the procedure of Biological Example 7. The term “EC1.5x for Smn protein expression” is defined as that concentration of test compound that is effective in producing 1.5 times the amount of Smn protein in an SMA patient fibroblast cell compared to the amount produced from the DMSO vehicle control. An EC1.5x for Smn protein expression between >3 μM and ≦10 μM is indicated by one star (*), an EC1.5x between >1 μM and ≦3 μM is indicated by two stars (**), an EC1.5x between >0.3 μM and ≦1 μM is indicated by three stars (***) and an EC1.5x≦0.3 μM is indicated by four stars (****).
For compounds of Formula (I) or a form thereof disclosed herein, Table 10 provides the maximum fold (Fold) increase of Smn protein that was obtained from the 7-point concentration data generated for each test compound according to the procedure of Biological Example 7. A maximum fold increase ≦1.2 is indicated by one star (*), a fold increase between >1.2 and ≦1.35 is indicated by two stars (**), a fold increase between >1.35 and ≦1.5 is indicated by three stars (***), a fold increase between >1.5 and ≦1.65 is indicated by four stars (****) and a fold increase >1.65 is indicated by five stars (*****).

[1] = test system: full length SMN2 minigene mRNA containing SMN2 exon 7 (SMN2-A minigene); assay: SMN2 minigene mRNA splicing RT-qPCR assay in cultured cells; format: cell-based, human; conditions: Homo sapiens, HEK293-H; HEK293H cells stably transfected with SMN2-A minigene, 24 hours, 7-point concentration curve; concentration giving 1.5-fold SMN2 full length mRNA vs vehicle; read-out: EC1.5x for production of full length SMN2 mRNA
Protocol: SMN2 Minigene mRNA Splicing RT-qPCR Assay in Cultured Cells
The reverse transcription-quantitative PCR-based (RT-qPCR) assay is used to quantify the level of the full length SMN2 minigene mRNA containing SMN2 exon 7 in a HEK293H cell line stably transfected with said minigene and treated with a test compound.
Protocol. HEK293H cells stably transfected with the SMN2-A minigene construct described above (10,000 cells/well) are seeded in 200 μL of cell culture medium (DMEM plus 10% FBS, with 200 μg/mL hygromycin) in 96-well flat-bottom plates and the plate is immediately swirled to ensure proper dispersal of cells, forming an even monolayer of cells. Cells are allowed to attach for at least 4-6 hours. Test compounds are serially diluted 3.16-fold in 100% DMSO to generate a 7-point concentration curve. A solution of test compound (1 μL, 200× in DMSO) is added to each cell-containing well and the plate is incubated for 24 hours in a cell culture incubator (37° C., 5% CO2, 100% relative humidity). Two replicates are prepared for each test compound concentration. The cells are then lysed in Cells-To-Ct lysis buffer and the lysate is stored at −80° C.
Primer SMN Forward A (SEQ ID NO. 1) hybridizes to a nucleotide sequence in exon 7 (nucleotide 22 to nucleotide 40), primer SMN Reverse A (SEQ ID NO. 2) hybridizes to a nucleotide sequence in the coding sequence of Firefly luciferase, SMN Probe A (SEQ ID NO. 3) hybridizes to a nucleotide sequence in exon 7 (nucleotide 50 to nucleotide 54) and exon 8 (nucleotide 1 to nucleotide 21). The combination of these three oligonucleotides detects only SMN1 or SMN2 minigenes (RT-qPCR) and will not detect endogenous SMN1 or SMN2 genes.
The SMN forward and reverse primers are used at final concentrations of 0.4 μM. The SMN probe is used at a final concentration of 0.15 μM. The GAPDH primers are used at final concentrations of 0.2 μM and the probe at 0.15 μM.
The SMN2-minigene GAPDH mix (15 μL total volume) is prepared by combining 7.5 μL of 2×RT-PCR buffer, 0.4 μL of 25×RT-PCR enzyme mix, 0.75 μL of 20×GAPDH primer-probe mix, 4.0075 μL of water, 2 μL of 10-fold diluted cell lysate, 0.06 μL of 100 μM SMN forward primer, 0.06 μL of 100 μM SMN reverse primer, and 0.225 μL of 100 μM SMN probe.
PCR is carried out at the following temperatures for the indicated time: Step 1: 48° C. (15 min); Step 2: 95° C. (10 min); Step 3: 95° C. (15 sec); Step 4: 60° C. (1 min); then repeat Steps 3 and 4 for a total of 40 cycles.
Each reaction mixture contains both SMN2-A minigene and GAPDH primers/probe sets (multiplex design), allowing simultaneous measurement of the levels of two transcripts.
Two SMN spliced products are generated from the SMN2 minigene. The first spliced product containing exon 7, corresponding to SMN2 full length mRNA, is referred to herein using the term “SMN2 minigene FL.” The second spliced product lacking exon 7 is referred to herein using the term “SMN2 minigene Δ7.”
The increase of SMN2 minigene FL mRNA relative to that in cells treated with vehicle control is determined from real-time PCR data using a modified ΔΔCt method (as described in Livak and Schmittgen, Methods, 2001, 25:402-8). The amplification efficiency (E) is calculated from the slope of the amplification curve for SMN2 minigene FL and GAPDH mRNA individually. The abundance of SMN2 minigene FL and GAPDH mRNA are then calculated as (1+E)^−Ct, where Ct is the threshold value for each amplicon. The abundance of SMN2 minigene FL is normalized to GAPDH abundance. The normalized SMN2 minigene FL abundance from test compound-treated samples is then divided by normalized SMN2 minigene FL abundance from vehicle-treated cells to determine the level of SMN2 FL mRNA relative to vehicle control. […]

| SMILES | melting point | maximal fold induction (Smn protein) | EC (1.5-fold) [1] | EC (1.5-fold) (Smn protein) |
| --- | --- | --- | --- | --- |
| COc1ccc(-c2cc(=O)c3cc(N4CCNCC4)ccc3o2)cc1C [Cpd 51, 2-(4-methoxy-3-methylphenyl)-6-(piperazin-1-yl)-4H-chromen-4-one] | 98 to 100 °C | 1.35 to 1.5 | 0.3 to 1 µM | – |
| O=c1cc(-c2cccc(F)c2)oc2ccc(N3CCNCC3)cc12 [Cpd 66, 2-(3-fluorophenyl)-6-(piperazin-1-yl)-4H-chromen-4-one] | 150 to 152 °C | 1.35 to 1.5 | 0.1 to 0.3 µM | – |
| COc1ccc(-c2cc(=O)c3cc(N4CCNCC4)ccc3o2)cc1OC(F)(F)F [Cpd 68, 2-[4-methoxy-3-(trifluoromethoxy)phenyl]-6-(piperazin-1-yl)-4H-chromen-4-one] | 104 to 106 °C | ≤ 1.2 | 0.3 to 1 µM | – |
| Cc1cn2cc(-c3cc(=O)c4cc(N5CCNCC5)ccc4o3)nc2cn1 [Cpd 72, 2-(6-methylimidazo[1,2-a]pyrazin-2-yl)-6-(piperazin-1-yl)-4H-chromen-4-one] | – | > 1.65 | ≤ 0.1 µM | ≤ 0.3 µM |
| CCOc1ccc(-c2cc(=O)c3cc(N4C[C@@H](C)N[C@@H](C)C4)ccc3o2)cc1 [Cpd 43, 6-[(3R,5S)-3,5-dimethylpiperazin-1-yl]-2-(4-ethoxyphenyl)-4H-chromen-4-one] | – | ≤ 1.2 | 1 to 3 µM | – |
| CN1CCN(c2ccc3oc(-c4cccnc4)cc(=O)c3c2)CC1 [Cpd 2, 6-(4-methylpiperazin-1-yl)-2-(pyridin-3-yl)-4H-chromen-4-one] | – | 1.2 to 1.35 | 3 to 30 µM | – |

Now from value to compound, other results behind:

| melting point | SMILES | maximal fold induction (Smn protein) | EC (1.5-fold) [1] | EC (1.5-fold) (Smn protein) |
| --- | --- | --- | --- | --- |
| 175 to 178 °C | C[C@H]1CN(c2ccc3oc(-c4cc(F)cc(F)c4)cc(=O)c3c2)CCN1 [Cpd 80, 2-(3,5-difluorophenyl)-6-[(3S)-3-methylpiperazin-1-yl]-4H-chromen-4-one] | 1.5 to 1.65 | ≤ 0.1 µM | 0.3 to 1 µM |
| 170 to 172 °C | O=c1cc(-c2ccccn2)oc2ccc(N3CCCNCC3)cc12 [Cpd 14, 6-(1,4-diazepan-1-yl)-2-(pyridin-2-yl)-4H-chromen-4-one] | ≤ 1.2 | 3 to 30 µM | – |
| 182 to 184 °C | COc1ccc(-c2cc(=O)c3cc(N4CCN[C@@H](C)C4)ccc3o2)cc1C(F)(F)F [Cpd 71, 2-[4-methoxy-3-(trifluoromethyl)phenyl]-6-[(3S)-3-methylpiperazin-1-yl]-4H-chromen-4-one] | 1.35 to 1.5 | 0.1 to 0.3 µM | 3 to 10 µM |
| 108 to 110 °C | COc1ccc(-c2cc(=O)c3cc(N4CCNC(C)(C)C4)ccc3o2)cc1OC [Cpd 27, 2-(3,4-dimethoxyphenyl)-6-(3,3-dimethylpiperazin-1-yl)-4H-chromen-4-one] | > 1.65 | 0.3 to 1 µM | 1 to 3 µM |
| 188 to 190 °C | CN1CCCN(c2ccc3oc(-c4cn5ccccc5n4)cc(=O)c3c2)CC1 [Cpd 19, 2-(imidazo[1,2-a]pyridin-2-yl)-6-(4-methyl-1,4-diazepan-1-yl)-4H-chromen-4-one] | > 1.65 | 3 to 30 µM | 1 to 3 µM |
| 186 to 188 °C | COc1ccc(-c2cc(=O)c3cc(N4C[C@@H](C)N[C@@H](C)C4)ccc3o2)cc1C [Cpd 53, 6-[(3R,5S)-3,5-dimethylpiperazin-1-yl]-2-(4-methoxy-3-methylphenyl)-4H-chromen-4-one] | 1.2 to 1.35 | 0.3 to 1 µM | – |
| 92 to 94 °C | CCOc1ccc(-c2cc(=O)c3cc(N4CCN[C@H](C)C4)ccc3o2)cc1 [Cpd 44, 2-(4-ethoxyphenyl)-6-[(3R)-3-methylpiperazin-1-yl]-4H-chromen-4-one] | ≤ 1.2 | 1 to 3 µM | – |
| 174 to 176 °C | COc1ccc(-c2cc(=O)c3cc(N4CCN[C@@H](C)C4)ccc3o2)cc1C [Cpd 52, 2-(4-methoxy-3-methylphenyl)-6-[(3S)-3-methylpiperazin-1-yl]-4H-chromen-4-one] | 1.35 to 1.5 | 0.1 to 0.3 µM | – |
| 145 to 150 °C | COc1ccc(-c2cc(=O)c3cc(N4CCNCC4)ccc3o2)cc1Cl [Cpd 58, 2-(3-chloro-4-methoxyphenyl)-6-(piperazin-1-yl)-4H-chromen-4-one] | 1.35 to 1.5 | ≤ 0.1 µM | 1 to 3 µM |
